21 compounds from patent US6544985B2, “Dihydro-benzo [b][1,4]diazepin-2-one derivatives” (Hoffman-La Roche Inc., priority 2001, dated 2003) can be followed below.

SMILES strings stand for the structures.

As usually defined, the melting point is the temperature of the solid-liquid transition. The compound `CC(C)CN(C)c1cc2c(cc1Cl)NC(=O)CC(c1cccc(-n3nncc3CN3CCC3)c1)=N2` [Example 130, 4-[3-(5-Azetidin-1-ylmethyl-[1,2,3]triazol-1-yl)-phenyl]-8-chloro-7-(isobutyl-methyl-amino)-1,3-dihydro-benzo[b][1,4]diazepin-2-one] had a melting point of 191 °C.

Compound `O=C1CC(c2cccc(-n3nncc3CO)c2)=Nc2cc(OCC(F)(F)F)c(-c3ccccc3F)cc2N1` [Example 26, 8-(2-Fluoro-phenyl)-4-[3-(5-hydroxymethyl-[1,2,3]triazol-1-yl)-phenyl]-7-(2,2,2-trifluoro-ethoxy)-1,3-dihydro-benzo[b][1,4]diazepin-2-one] yielded a melting point of 232 to 234 °C.

For `COCCN(C)c1cc2c(cc1Cl)NC(=O)CC(c1cccc(-n3ccnn3)c1)=N2` [Example 14, 8-Chloro-7-[(2-methoxy-ethyl)-methyl-amino]-4-(3-[1,2,3]triazol-1-yl-phenyl)-1,3-dihydro-benzo[b][1,4]diazepin-2-one], the melting point is 156 °C. The compound `CC(C)CNc1cc2c(cc1Cl)NC(=O)CC(c1cccc(-n3cncn3)c1)=N2` [Example 181, 8-Chloro-7-(isobutyl-amino)-4-(3-[1,2,4]triazol-1-yl-phenyl)-1,3-dihydro-benzo[b][1,4]diazepin-2-one] gave a melting point of 222 °C. Consider `Cc1noc(-c2cccc(C3=Nc4cc(N(C)C)c(Cl)cc4NC(=O)C3)c2)c1CO` [Example 35, 8-Chloro-7-dimethylamino-4-[3-(4-hydroxymethyl-3-methyl-isoxazol-5-yl)-phenyl]-1,3-dihydro-benzo[b][1,4]diazepin-2-one], for which the melting point was 232 to 233 °C. As for `CC(C)CN(C)c1cc2c(cc1C(F)(F)F)NC(=O)CC(c1cccc(-n3nncc3CN(C)C)c1)=N2` [Example 136, 4-[3-(5-Dimethylaminomethyl-[1,2,3]triazol-1-yl)-phenyl]-7-(isobutyl-methyl-amino)-8-trifluoromethyl-1,3-dihydro-benzo[b][1,4]diazepin-2-one], the melting point was determined as 182 °C.

On to `CCN(C)c1cc2c(cc1Cl)NC(=O)CC(c1cccc(-n3nncc3CO)c1)=N2` [Example 28, 8-Chloro-7-(ethyl-methyl-amino)-4-[3-(5-hydroxymethyl-[1,2,3]triazol-1-yl)-phenyl]-1,3-dihydro-benzo[b][1,4]diazepin-2-one], for which the melting point is 206 °C (dec.).

As for `Cc1cc(-c2cccc(C3=Nc4cc(N5CCCC5)c(F)cc4NC(=O)C3)c2)on1` [Example 57, 8-Fluoro-4-[3-(3-methyl-isoxazol-5-yl)-phenyl]-7-pyrrolidin-1-yl-1,3-dihydro-benzo[b][1,4]diazepin-2-one], the melting point was found to be 236 °C. On to `CN(C)c1cc2c(cc1Cl)NC(=O)CC(c1cccc(-n3ccnn3)c1)=N2` [Example 2, 8-Chloro-7-dimethylamino-4-(3-[1,2,3]triazol-1-yl-phenyl)-1,3-dihydro-benzo[b][1,4]diazepin-2-one], for which the melting point fell in the range of 222 to 225 °C. `CN(C)c1cc2c(cc1Cl)NC(=O)CC(c1cccc(-n3nncc3CN3CCCC3)c1)=N2` [Example 45, 8-Chloro-7-dimethylamino-4-[3-(5-pyrrolidin-1-ylmethyl-[1,2,3]triazol-1-yl)-phenyl]-1,3-dihydro-benzo[b][1,4]diazepin-2-one]: the melting point fell in the range of 180 to 182 °C. Compound `CC(C)CN(C)c1cc2c(cc1C(F)(F)F)NC(=O)CC(c1cccc(-n3ccnn3)c1)=N2` [Example 176, 7-(Isobutyl-methyl-amino)-4-(3-[1,2,3]triazol-1-yl-phenyl)-8-trifluoromethyl-1,3-dihydro-benzo[b][1,4]diazepin-2-one] showed a melting point of 202 °C. The same measure for `CN(C)c1cc2c(cc1C(F)(F)F)NC(=O)CC(c1cccc(-c3nc(CO)co3)c1)=N2` [Example 202, 7-Dimethylamino-4-[3-(4-hydroxymethyl-oxazol-2-yl)-phenyl]-8-trifluoromethyl-1,3-dihydro-benzo[b][1,4]diazepin-2-one]: 197 to 198 °C; for `CN(C)c1cc2c(cc1Cl)NC(=O)CC(c1cccc(-c3csc(NC(=N)N)n3)c1)=N2` [Example 196, N-{4-[3-(7-Chloro-8-dimethylamino-4-oxo-4,5-dihydro-3H-benzo[b][1,4]diazepin-2-yl)-phenyl]-thiazol-2-yl}-guanidine]: 221 °C (dec.). On to `Cc1cc2c(cc1N(C)CC(C)C)N=C(c1cccc(-n3ncnc3CNC3CC3)c1)CC(=O)N2` [Example 159, 4-[3-(5-Cyclopropylaminomethyl-[1,2,4]triazol-1-yl)-phenyl]-7-(isobutyl-methyl-amino)-8-methyl-1,3-dihydro-benzo[b][1,4]diazepin-2-one], for which the melting point turned out to be 114 °C. `CC(C)N(C)c1cc2c(cc1Cl)NC(=O)CC(c1cccc(-c3nc(CO)co3)c1)=N2` [Example 189, 8-Chloro-4-[3-(4-hydroxymethyl-oxazol-2-yl)-phenyl]-7-(isopropyl-methyl-amino)-1,3-dihydro-benzo[b][1,4]diazepin-2-one] had a melting point of 143 to 145 °C.

In turn, `CC(C)CN(C)c1cc2c(cc1Cl)NC(=O)CC(c1cccc(-c3nc(CO)co3)c1)=N2` [Example 190, 8-Chloro-4-[3-(4-hydroxymethyl-oxazol-2-yl)-phenyl]-7-(isobutyl-methyl-amino)-1,3-dihydro-benzo[b][1,4]diazepin-2-one] displayed a melting point of 166 to 167 °C. For `CN(C)c1cc2c(cc1Cl)NC(=O)CC(c1cccc(-c3nnc(CCO)s3)c1)=N2` [Example 223, 8-Chloro-7-dimethylamino-4-{3-[5-(2-hydroxy-ethyl)-[1,3,4]thiadiazol-2-yl]-phenyl}-1,3-dihydro-benzo[b][1,4]diazepin-2-one] the value was 198 to 200 °C; for `CC(C)CN(C)c1cc2c(cc1Cl)NC(=O)CC(c1cccc(-n3nncc3CN(C)C)c1)=N2` [Example 128, 8-Chloro-4-[3-(5-dimethylaminomethyl-[1,2,3]triazol-1-yl)-phenyl]-7-(isobutyl-methyl-amino)-1,3-dihydro-benzo[b][1,4]diazepin-2-one], 199 °C. The same measure for `CCCN(C)c1cc2c(cc1Cl)NC(=O)CC(c1cccc(-n3nncc3CN(CC)CC)c1)=N2` [Example 123, 8-Chloro-4-[3-(5-diethylaminomethyl-[1,2,3]triazol-1-yl)-phenyl]-7-(methyl-propyl-amino)-1,3-dihydro-benzo[b][1,4]diazepin-2-one]: 151 °C; for `CCCN(C)c1cc2c(cc1C(F)(F)F)NC(=O)CC(c1cccc(-c3nc(CO)cs3)c1)=N2` [Example 203, 4-[3-(4-Hydroxymethyl-thiazol-2-yl)-phenyl]-7-(methyl-propyl-amino)-8-trifluoromethyl-1,3-dihydro-benzo[b][1,4]diazepin-2-one]: 177 to 180 °C; for `CC(C)N(C)c1cc2c(cc1Cl)NC(=O)CC(c1cccc(-n3nncc3CNC3CCCC3)c1)=N2` [Example 142, 8-Chloro-4-[3-(5-cyclopentylaminomethyl-[1,2,3]triazol-1-yl)-phenyl]-7-(isopropyl-methyl-amino)-1,3-dihydro-benzo[b][1,4]diazepin-2-one]: 174 °C.
